According to ChEMBL document CHEMBL1149492, “Discovery of potent and stable conformationally constrained analogues of the MCH R1 antagonist SB-568849” (Bioorg Med Chem Lett, 2006):

Experiments:
[1] = molecular target: Melanin-concentrating hormone receptor 1 (Homo sapiens, UniProt Q99705); test: Displacement of radiolabeled iodo-MCH from human MCHR1 expressed in HEK293 cells; format: cell-based
[2] = Stability in aqueous phosphate buffer at pH 7; format: physicochemical
Liver microsomes = test: Intrinsic clearance in human liver microsome; format: ADME

Sequence of Melanin-concentrating hormone receptor 1 (Q99705 whole entry): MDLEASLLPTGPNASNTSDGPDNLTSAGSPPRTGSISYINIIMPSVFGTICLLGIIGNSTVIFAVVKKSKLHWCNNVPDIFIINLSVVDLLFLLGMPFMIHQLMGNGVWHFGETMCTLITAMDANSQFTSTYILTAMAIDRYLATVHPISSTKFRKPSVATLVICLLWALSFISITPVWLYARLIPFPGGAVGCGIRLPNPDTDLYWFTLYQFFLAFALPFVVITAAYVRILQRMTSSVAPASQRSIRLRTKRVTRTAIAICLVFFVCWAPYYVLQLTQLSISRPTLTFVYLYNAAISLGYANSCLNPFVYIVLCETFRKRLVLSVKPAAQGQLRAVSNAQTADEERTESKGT

SMILES | Ki [1] [nM] | also measured
COc1cc(NC(=O)c2ccc(C3CCCCC3)cc2)ccc1OC12CCCN(CC1)C2 (centres undefined) | 50.1 | –
CCN1CCN(c2ccc(NC(=O)c3ccc(C4CCCCC4)cc3)cc2OC)CC1 | 79.4 | –
COc1cc(-n2nnc3ccc(Oc4ccccc4)cc3c2=O)ccc1OCCN1CCCC1 | 39.8 | –
COc1cc(-n2cnc3sc(-c4ccccc4)cc3c2=O)ccc1OCCN1CCCC1 | 794 | –
COc1cc(-n2cnc3cc(-c4ccccc4)sc3c2=O)ccc1OCCN1CCCC1 | 20 | Stability [2]: Stable
O=C(Nc1ccc(OCCN2CCCC2)cc1)c1ccc2oc3ccccc3c2c1 | 2510 | –
CC(C)N(CCOc1ccc(N(C)C(=O)c2ccc3c(c2)CCc2ccccc2-3)cc1)C(C)C | 316 | –
O=C(Nc1ccc(OCCN2CCCC2)cc1)c1ccc2c(c1)CCc1ccccc1-2 | 1000 | –
COc1cc(N2Cc3ccc(-c4ccccc4)cc3C2=O)ccc1OCCN(C(C)C)C(C)C | 398 | –
COc1cc(-n2cnc3cc(Oc4ccccc4)ccc3c2=O)ccc1OCCN1CCCC1 | 50.1 | –
COc1cc(N2C(=O)c3ccc(Oc4ccccc4)cc3C2=O)ccc1OCCN1CCCC1 | – | Activity [2]: Not Active
CC(C)N(CCOc1ccc(NC(=O)c2ccc3c(c2)C(=O)c2ccccc2-3)cc1)C(C)C | 200 | –
COc1cc(-n2nnc3cc(Oc4ccccc4)ccc3c2=O)ccc1OCCN1CCCC1 | 79.4 | –
COc1cc(N2C(=O)c3ccc(Sc4ccccc4)cc3C2=O)ccc1OCCN1CCCC1 | 31.6 | Activity [2]: Not Active
COc1cc(-n2cnc3ccc(Oc4ccccc4)cc3c2=O)ccc1OCCN1CCCC1 | 316 | –
COc1cc(NC(=O)c2ccc(C3CCCCC3)cc2)ccc1OC1CCN(C)C1 (centres undefined) | 63.1 | –
CC(C)N(CCOc1ccc(N(C)C(=O)c2ccc3c(c2)Cc2ccccc2-3)cc1)C(C)C | 398 | –
COc1cc(NC(=O)c2ccc(C3CCCCC3)cc2)ccc1OC[C@@H]1CCCN1C | 39.8 | –
COc1cc(NC(=O)c2ccc(C3CCCCC3)cc2)ccc1O[C@H]1CCCC[C@@H]1N(C)C | 2510 | –
COc1cc(-n2nnc3cc(-c4ccccc4)ccc3c2=O)ccc1OCCN1CCCC1 | 25.1 | Stability [2]: Stable; CL (Liver microsomes): < 1.5 mL/min/g
COc1cc(NC(=O)c2ccc(C3CCCCC3)cc2)ccc1OC[C@H]1CCCN1C | 79.4 | –
COc1cc(N2C(=O)c3ccc(Nc4ccccc4)cc3C2=O)ccc1OCCN1CCCC1 | 15.8 | Activity [2]: Not Active
COc1cc(-n2cnc3ccc(-c4ccc(Cl)cc4)cc3c2=O)ccc1OCCN1CCCC1 | 1000 | –
COc1cc(-n2cnc3cc(-c4ccccc4)ccc3c2=O)ccc1OCCN1CCCC1 | 20 | Stability [2]: Stable; CL (Liver microsomes): < 1.5 mL/min/g
O=C(Nc1ccc(OCCN2CCCC2)cc1)c1ccc2c(c1)Cc1ccccc1-2 | 501 | –
COc1cc(N2C(=O)c3ccc(-c4ccccc4)cc3C2=O)ccc1OCCN(C(C)C)C(C)C | 126 | –
COc1cc(N(C)C(=O)c2ccc3oc4ccccc4c3c2)ccc1OCCN(C(C)C)C(C)C | 2000 | –
